The source made the active and inactive calls. How the calls were made is not given here.
Tested on: CCRIS mutagenicity, Ames/micronucleus/aberration tests
Experiment: CCRIS mutagenicity studies
[1] = Test System: AMES SALMONELLA TYPHIMURIUM, Strain/Indicator: TA98, Metabolic Activation: NONE, Method: STANDARD PLATE
[2] = Test System: AMES SALMONELLA TYPHIMURIUM, Strain/Indicator: TA98, Metabolic Activation: RAT, LIVER, S-9, AROCLOR 1254, Method: STANDARD PLATE
[3] = Test System: AMES SALMONELLA TYPHIMURIUM, Strain/Indicator: TA100, Metabolic Activation: NONE, Method: STANDARD PLATE
[4] = Test System: AMES SALMONELLA TYPHIMURIUM, Strain/Indicator: TA100, Metabolic Activation: RAT, LIVER, S-9, AROCLOR 1254, Method: STANDARD PLATE
[5] = Test System: AMES SALMONELLA TYPHIMURIUM, Strain/Indicator: TA1535, Metabolic Activation: NONE, Method: STANDARD PLATE
[6] = Test System: AMES SALMONELLA TYPHIMURIUM, Strain/Indicator: TA1535, Metabolic Activation: RAT, LIVER, S-9, AROCLOR 1254, Method: STANDARD PLATE
[7] = Test System: AMES SALMONELLA TYPHIMURIUM, Strain/Indicator: TA1537, Metabolic Activation: NONE, Method: STANDARD PLATE
[8] = Test System: AMES SALMONELLA TYPHIMURIUM, Strain/Indicator: TA1537, Metabolic Activation: RAT, LIVER, S-9, AROCLOR 1254, Method: STANDARD PLATE
[9] = Test System: AMES SALMONELLA TYPHIMURIUM, Strain/Indicator: TA98, Metabolic Activation: NONE, Method: PREINCUBATION
[10] = Test System: AMES SALMONELLA TYPHIMURIUM, Strain/Indicator: TA100, Metabolic Activation: NONE, Method: PREINCUBATION
[11] = Test System: AMES SALMONELLA TYPHIMURIUM, Strain/Indicator: TA1535, Metabolic Activation: NONE, Method: PREINCUBATION

For `CC(C)NNC(=O)c1ccncc1`, the mutagenic call [1] was “inactive; negative”, the mutagenic call [2] was “inactive; negative” and the mutagenic call [3] was “inactive; negative”. For the same molecule, the mutagenic call [4] was “inactive; negative”, the mutagenic call [5] was “inactive; negative” and the mutagenic call [6] was “inactive; negative”. For the same molecule, the mutagenic call [7] was “inactive; negative” and the mutagenic call [8] was “inactive; negative”.
For `COc1cc(O)c2c(=O)c3c(OC)cc4c(c3oc2c1OC)[C@@H]1C=CO[C@@H]1O4`, the mutagenic call (Test System: AMES SALMONELLA TYPHIMURIUM, Strain/Indicator: TA98, Metabolic Activation: RAT, LIVER, S-9, PHENOBARBITAL, Method: STANDARD PLATE) was “inactive; negative” and the mutagenic call (Test System: AMES SALMONELLA TYPHIMURIUM, Strain/Indicator: TA100, Metabolic Activation: RAT, LIVER, S-9, PHENOBARBITAL, Method: STANDARD PLATE) was “active; positive”.
For `c1ccc2c(c1)ccc1cc3c(ccc4ccncc43)cc12`, the mutagenic call [1] was “inactive; negative”, the mutagenic call (Test System: AMES SALMONELLA TYPHIMURIUM, Strain/Indicator: TA98, Metabolic Activation: RAT, LIVER, S-9, AROCLOR 1254 (10%), Method: STANDARD PLATE) was “active; positive” and the mutagenic call [2] was “active; positive”. The mutagenic call [3] was “inactive; negative”, the mutagenic call (Test System: AMES SALMONELLA TYPHIMURIUM, Strain/Indicator: TA100, Metabolic Activation: RAT, LIVER, S-9, 1254 (10%), Method: STANDARD PLATE) was “active; positive” and the mutagenic call [4] was “active; positive”.
`CC(C)Nc1nc(Cl)nc(NCC(=O)O)n1` was tested, and the mutagenic call (End Point: In vivo micronucleus, Test System: Bone marrow erythrocytes, Species: Mouse, Strain/Sex: Crl:CD-1, Route: Gavage) was “inactive; negative; proportion of pces per 1000 erythrocytes depressed”.
`O=c1c2ccc3c4c(ccc(c24)c2nc4ccccc4n12)c(=O)n1c2ccccc2nc31` was tested, and the mutagenic call (Test System: AMES SALMONELLA TYPHIMURIUM, Strain/Indicator: TA97, Metabolic Activation: HAMSTER, LIVER, S-9, AROCLOR 1254 (10%), Method: PREINCUBATION) was “inactive; negative”, the mutagenic call (Test System: AMES SALMONELLA TYPHIMURIUM, Strain/Indicator: TA97, Metabolic Activation: NONE, Method: PREINCUBATION) was “active; positive” and the mutagenic call (Test System: AMES SALMONELLA TYPHIMURIUM, Strain/Indicator: TA97, Metabolic Activation: RAT, LIVER, S-9, AROCLOR 1254 (10%), Method: PREINCUBATION) was “inactive; negative”. The mutagenic call (Test System: AMES SALMONELLA TYPHIMURIUM, Strain/Indicator: TA98, Metabolic Activation: HAMSTER, LIVER, S-9, AROCLOR 1254 (10%), Method: PREINCUBATION) was “active; positive”, the mutagenic call [9] was “active; positive” and the mutagenic call (Test System: AMES SALMONELLA TYPHIMURIUM, Strain/Indicator: TA98, Metabolic Activation: RAT, LIVER, S-9, AROCLOR 1254 (10%), Method: PREINCUBATION) was “inactive; negative”. The mutagenic call (Test System: AMES SALMONELLA TYPHIMURIUM, Strain/Indicator: TA100, Metabolic Activation: HAMSTER, LIVER, S-9, AROCLOR 1254 (10%), Method: PREINCUBATION) was “inactive; negative”, the mutagenic call [10] was “inactive; negative” and the mutagenic call (Test System: AMES SALMONELLA TYPHIMURIUM, Strain/Indicator: TA100, Metabolic Activation: RAT, LIVER, S-9, AROCLOR 1254 (10%), Method: PREINCUBATION) was “inactive; negative”. For the same molecule, the mutagenic call (Test System: AMES SALMONELLA TYPHIMURIUM, Strain/Indicator: TA1535, Metabolic Activation: HAMSTER, LIVER, S-9, AROCLOR 1254 (10%), Method: PREINCUBATION) was “inactive; negative”, the mutagenic call [11] was “inactive; negative” and the mutagenic call (Test System: AMES SALMONELLA TYPHIMURIUM, Strain/Indicator: TA1535, Metabolic Activation: RAT, LIVER, S-9, AROCLOR 1254 (10%), Method: PREINCUBATION) was “inactive; negative”.
In the case of `O=c1c2cccc3ccc4cccc1c4c32`, the mutagenic call [4] is reported as “active; positive”.
For `O=S(c1cc(Cl)cc(Cl)c1O)c1cc(Cl)cc(Cl)c1O`, the mutagenic call (Test System: AMES SALMONELLA TYPHIMURIUM, Strain/Indicator: TA97, Metabolic Activation: NONE, Method: STANDARD PLATE) was “inactive; negative”, the mutagenic call (Test System: AMES SALMONELLA TYPHIMURIUM, Strain/Indicator: TA97, Metabolic Activation: RAT, LIVER, S-9, AROCLOR 1254, Method: STANDARD PLATE) was “inactive; negative” and the mutagenic call [1] was “active; positive”. For the same molecule, the mutagenic call [2] was “inactive; negative”, the mutagenic call [3] was “active; positive” and the mutagenic call [4] was “inactive; negative”. For the same molecule, the mutagenic call (Test System: AMES SALMONELLA TYPHIMURIUM, Strain/Indicator: TA102, Metabolic Activation: NONE, Method: STANDARD PLATE) was “inactive; negative” and the mutagenic call (Test System: AMES SALMONELLA TYPHIMURIUM, Strain/Indicator: TA102, Metabolic Activation: RAT, LIVER, S-9, AROCLOR 1254, Method: STANDARD PLATE) was “inactive; negative”.
For `O=P([O-])([O-])OC(CCO)CCO.O=P([O-])([O-])OCC(O)CO.[Mn+2].[Mn+2]`, the mutagenic call [1] was “inactive; negative”, the mutagenic call [2] was “inactive; negative” and the mutagenic call [3] was “inactive; negative”. The mutagenic call [4] was “inactive; negative”, the mutagenic call [5] was “inactive; negative” and the mutagenic call [6] was “inactive; negative”. For the same molecule, the mutagenic call [7] was “inactive; negative”, the mutagenic call [8] was “inactive; negative” and the mutagenic call (Test System: AMES SALMONELLA TYPHIMURIUM, Strain/Indicator: TA1538, Metabolic Activation: NONE, Method: STANDARD PLATE) was “inactive; negative”. The mutagenic call (Test System: AMES SALMONELLA TYPHIMURIUM, Strain/Indicator: TA1538, Metabolic Activation: RAT, LIVER, S-9, AROCLOR 1254, Method: STANDARD PLATE) was “inactive; negative”, the mutagenic call (Test System: E. COLI, Strain/Indicator: WP2, Metabolic Activation: NONE, Method: STANDARD PLATE) was “inactive; negative” and the mutagenic call (Test System: E. COLI, Strain/Indicator: WP2, Metabolic Activation: RAT, LIVER, S-9, AROCLOR 1254, Method: STANDARD PLATE) was “inactive; negative”.
In the case of `Cc1ccc2cc3c(c4c2c1CC4)[C@@H](O)[C@@H](O)c1ccccc1-3`, the mutagenic call (Test System: CHINESE HAMSTER V-79, Strain/Indicator: V-79/8-AZAGUANINE, Metabolic Activation: NONE, Method: STANDARD PLATE) is reported as “active; positive”.
With `CC1(C)S[C@@H]2[C@H](NC(=O)COc3ccccc3)C(=O)N2[C@H]1C(=O)O` the mutagenic call (Test System: AMES SALMONELLA TYPHIMURIUM, Strain/Indicator: TA98, Metabolic Activation: HAMSTER, LIVER, S-9, AROCLOR 1254, Method: PREINCUBATION) was “inactive; negative”, the mutagenic call [9] was “inactive; negative” and the mutagenic call (Test System: AMES SALMONELLA TYPHIMURIUM, Strain/Indicator: TA98, Metabolic Activation: RAT, LIVER, S-9, AROCLOR 1254, Method: PREINCUBATION) was “inactive; negative”. For the same molecule, the mutagenic call (Test System: AMES SALMONELLA TYPHIMURIUM, Strain/Indicator: TA100, Metabolic Activation: HAMSTER, LIVER, S-9, AROCLOR 1254, Method: PREINCUBATION) was “inactive; negative”, the mutagenic call [10] was “inactive; negative” and the mutagenic call (Test System: AMES SALMONELLA TYPHIMURIUM, Strain/Indicator: TA100, Metabolic Activation: RAT, LIVER, S-9, AROCLOR 1254, Method: PREINCUBATION) was “inactive; negative”. The mutagenic call (Test System: AMES SALMONELLA TYPHIMURIUM, Strain/Indicator: TA1535, Metabolic Activation: HAMSTER, LIVER, S-9, AROCLOR 1254, Method: PREINCUBATION) was “inactive; negative”, the mutagenic call [11] was “inactive; negative” and the mutagenic call (Test System: AMES SALMONELLA TYPHIMURIUM, Strain/Indicator: TA1535, Metabolic Activation: RAT, LIVER, S-9, AROCLOR 1254, Method: PREINCUBATION) was “inactive; negative”. For the same molecule, the mutagenic call (Test System: AMES SALMONELLA TYPHIMURIUM, Strain/Indicator: TA1537, Metabolic Activation: HAMSTER, LIVER, S-9, AROCLOR 1254, Method: PREINCUBATION) was “inactive; negative”, the mutagenic call (Test System: AMES SALMONELLA TYPHIMURIUM, Strain/Indicator: TA1537, Metabolic Activation: NONE, Method: PREINCUBATION) was “inactive; negative” and the mutagenic call (Test System: AMES SALMONELLA TYPHIMURIUM, Strain/Indicator: TA1537, Metabolic Activation: RAT, LIVER, S-9, AROCLOR 1254, Method: PREINCUBATION) was “inactive; negative”. For the same molecule, the mutagenic call (Test System: MOUSE LYMPHOMA, Strain/Indicator: L5178Y (TK+/TK-), Metabolic Activation: NONE, Method: SUSPENSION/PLATE) was “inactive; negative” and the mutagenic call (Test System: MOUSE LYMPHOMA, Strain/Indicator: L5178Y (TK+/TK-), Metabolic Activation: RAT, LIVER, S-9, Method: SUSPENSION/PLATE) was “active; positive”.

From PubChem BioAssay AID1259407 (Chemical Carcinogenesis Research Information System (CCRIS), 2018)
